Experimental data published in publication PMC5570900, “Exploiting a novel conformational switch to control innate immunity mediated by complement protein C3a” (Nature Communications, 2017).

Legend:
C3aR [1] = target: T1, C3aR (Homo sapiens, UniProt Q16581); experiment: Inhibition of hC3a-induced Ca2+ release in human monocyte-derived macrophages; type: cell-based; set-up: Concentration-dependent Ca^2+ release in human monocyte-derived macrophages (HMDMs); endogenous in cells; host or cells: primary human monocyte-derived macrophages (HMDMs); conditions: HMDMs, hC3a 100 nM, n ≥ 3, ± SEM
T1 sequence (Q16581 1-482): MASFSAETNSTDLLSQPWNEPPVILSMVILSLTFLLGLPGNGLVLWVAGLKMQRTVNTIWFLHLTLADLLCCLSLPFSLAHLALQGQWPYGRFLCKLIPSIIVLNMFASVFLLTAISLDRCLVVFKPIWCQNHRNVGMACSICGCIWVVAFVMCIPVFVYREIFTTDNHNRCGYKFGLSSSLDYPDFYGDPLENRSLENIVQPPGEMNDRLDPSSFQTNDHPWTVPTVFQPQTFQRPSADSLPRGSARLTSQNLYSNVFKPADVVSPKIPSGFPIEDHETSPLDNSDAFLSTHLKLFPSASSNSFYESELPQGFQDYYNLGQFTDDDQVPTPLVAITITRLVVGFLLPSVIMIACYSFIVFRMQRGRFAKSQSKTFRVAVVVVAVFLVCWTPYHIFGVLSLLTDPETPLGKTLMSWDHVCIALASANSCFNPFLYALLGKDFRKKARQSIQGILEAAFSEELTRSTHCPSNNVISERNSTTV
Description: (§1) HMDMs were isolated using Ficoll-paque density centrifugation (GE Healthcare Bio-Science, Uppsala, Sweden) from buffy coat (of anonymous human donors) provided by the Australian Red Cross Blood Service, Brisbane. CD14^+ monocytes were positively selected using CD14 MicroBeads (Miltenyi Biotech, Auburn, USA)[40], [41]. CD14^+ monocytes were differentiated to HMDMs using 100 ng/mL of recombinant human macrophage colony-stimulating factor (PeptroTech, Rocky Hill, USA) for 7 days in Iscove’s modified Dulbecco’s media supplemented with 10% fetal bovine serum, penicillin (100 U/mL), streptomycin (100 µg/mL) and L-glutamine (2 mM). HMDMs were supplemented after 5 days with fresh medium containing 10 ng/ml macrophage colony-stimulating factor and collected by gentle scraping on day 7.
(§2) HMDMs were seeded to a 96-well clear-bottom black-wall assay plate at a density of 5 × 10^4 cells per well and allowed to adhere overnight. Prior to assay, cells were incubated with dye-loading buffer (Hank’s balance salt solution (HBSS) buffer, 4 μM Fluo-3 AM, 25 μl Pluronic acid F-127 and 1% fetal bovine serum) for 1 h at 37 °C. Cells were then washed once with assay buffer (HBSS supplemented with 2.5 mM probenecid and 20 mM HEPES, pH 7.4). Intracellular calcium release was monitored using a fluorescence imaging plate reader (excitation 495 nm, emission 520 nm). The percentage responses were plotted against logarithmic concentrations of each test compound[42].

C5aR = target: T2, C5aR (Homo sapiens, UniProt P21730); experiment: [125I]-hC5a competition binding on HMDMs; conditions: [125I]-hC5a 25 pM
T2 construct: endogenous in cells; host or cells: primary human monocyte-derived macrophages (HMDMs)
T2 sequence (P21730 1-350): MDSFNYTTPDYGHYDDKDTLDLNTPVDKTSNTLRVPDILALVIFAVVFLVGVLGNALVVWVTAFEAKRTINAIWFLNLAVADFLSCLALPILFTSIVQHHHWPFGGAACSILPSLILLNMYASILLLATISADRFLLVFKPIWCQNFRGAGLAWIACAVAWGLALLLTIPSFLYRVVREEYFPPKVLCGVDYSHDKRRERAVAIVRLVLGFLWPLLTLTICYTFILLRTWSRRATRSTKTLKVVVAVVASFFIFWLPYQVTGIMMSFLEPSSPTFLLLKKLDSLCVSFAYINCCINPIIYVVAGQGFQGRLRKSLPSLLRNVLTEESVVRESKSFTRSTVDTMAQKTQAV
Description: Receptor binding was performed by ligand competition with labelled 80 pM [^125I]-C3a or 25 pM [^125I]-C5a (2200 Ci/mmol; Perkin Elmer, Torrance, CA, USA) on HMDMs (1.2 × 10^6 cells/ml). HMDMs were treated with [^125I]-C3a or [^125I]-C5a ± various concentrations of unlabelled C3a/C5a or experimental ligands were diluted with assay buffer (50 mM Tris, 3 mM MgCl2, 0.1 mM CaCl2, 0.5% (w/v) BSA, pH 7.4) for 60 min at room temperature. Unbound [^125I]-C3a or [^125I]-C5a was removed by filtration through glass microfibre filter GF/B (Whatman Iner. Ltd, England) and washed three times with cold buffer (50 mM Tris-HCl pH 7.4). Bound [^125I]-C3a or [^125I]-C5a were assessed by scintillation counting on Microbeta counter. Specific binding was defined as the difference between total binding and nonspecific binding as determined in the presence of 1 μM unlabelled C3a or C5a[4].

mast cells = experiment: Mast cell stabilizer in BR103-induced rat paw edema; type: in vivo; conditions: 20 mg/kg s.c., 30 min prior, 0.5 h
Description: Male Wistar rats (8–9 weeks) were injected with BR103 (3, 350 μg in 100 μL isotonic saline) into the plantar surface of both hind paw pads using a 30G needle. The inhibitor cromolyn (20 mg/kg in 5% DMSO) was injected subcutaneously 30 min before the agonist. The antagonist BR111 (6, 5–20 mg/kg in olive oil) was administered orally as a single dose 2 h before the agonist. Paw thickness and width were measured using digital calipers (WPI) at 0, 0.5, 2, 6 and 24 h after agonist BR103 administration. Hind paw size is expressed as % change in area from baseline after 0.5 h and then normalized against maximum swelling induced by agonist alone. Researchers were not blinded to treatments given. Rat paw tissue was collected and fixed in 4% paraformaldehyde (pH 7.4) for 2 h in the cold room (4 °C). The rat paw tissue was then transferred into falcon tubes containing 30% sucrose solution in PBS and left overnight in the cold room. The next day, rat paw tissue was embedded with the Optimal Cutting Temperature compound (OCT, Sakura Finetek, USA) and stored in the −80 °C freezer before being used for making cryo-sections for histological analysis. Frozen sections of 5 microns were prepared using a cryostat-microtome (Leica Biosystems, Germany) and stained using standard protocols on the same day. In normal histological staining, such as with alcian blue and safranin O and hematoxylin and eosin (H&E), samples were briefly washed with distilled water before staining. In alcian blue and safranin O, samples were stained with 0.1% alcian blue (Sigma-Aldrich, USA) and 0.5% safranin O (Sigma-Aldrich, USA) before being mounted in mounting medium. In H&E, samples were stained with hematoxylin (Sigma-Aldrich, USA) and 0.1% eosin (Sigma-Aldrich, USA) before being mounted in mounting medium. In immunohistochemistry, samples were briefly rinsed with PBS to remove OCT and incubated with blocking medium (PBS, 0.1% triton X-100, 10% horse serum) for 1 h at room temperature. Samples were incubated with primary antibody medium (PBS, 4% horse serum, 1:200 histamine or 1:200 of tryptase or 1:150 ED1 or 1:200 ED2 antibodies) overnight at 4 °C. The next day, samples were washed with PBS and were incubated with the secondary antibody medium (PBS, 4% horse serum, detection antibody 1:1000) for 1 h at room temperature. The samples were briefly rinsed, dried and counterstained with DAPI (Invitrogen, Australia). Primary antibodies for histamine (Sigma-Aldrich, USA, H2403, monoclonal rabbit anti-rat IgG, 1: 200), tryptase (Abcam, Australia, ab2378, monoclonal mouse anti-rat IgG, 1:200), ED1 (Serotec, UK, MCA341R, monoclonal mouse anti-rat, 1:150), ED2 (Serotec, UK, MCA3424R, monoclonal mouse anti-rat, 1:200) were purchased from commercial sources. Secondary detection antibody was purchased from (Invitrogen, Australia). ED1 & ED2 positive cells were quantified using FIJI/ImageJ 1.42q software, U.S. National Institutes of Health, Bethesda, MD, USA[44]. All microscope images were obtained using an Olympus BX-51 upright microscope with Olympus DP-71 12Mp colour camera, utilizing DP Capture and DP Manager software packages (Olympus, Tokyo, Japan). Researchers who performed histological analysis and scoring were blinded to the sample identity. Rat paw tissues were collected and immediately frozen with liquid nitrogen. Frozen rat paw tissues were cut into smaller pieces and mixed with 1 mL of TRIsure (Bioline, Australia) prior to homogenizing according to manufacturer’s instructions. […]

C3aR [2] = target: T1, C3aR; experiment: Histamine secretion in human LAD2 mast cells (agonist mode); type: cell-based; set-up: Concentration-dependent histamine secretion in human LAD2 mast cells; endogenous in cells; host or cells: LAD2 human mast cells; conditions: for EC50: compound alone, 30 min, n ≥ 3, ± SEM
Description: LAD2 human mast cells (kindly provided by Dr Dean Metcalfe, National Institute of Allergy and Infectious Diseases, National Institute of Health) were cultured in StemPro®-34 Serum Free Media (Invitrogen, Australia) supplemented with StemPro®-34 nutrient, 100 U/mL penicillin, 100 μg/mL streptomycin, 2 mM GlutaMAX, and 100 ng/mL human stem cell factor (SCF). Cells were hemi-depleted weekly and were not allowed to grow beyond a density of 0.5 × 10^6/mL. This cell line was authenticated by expression of tryptase and histamine granules. For the histamine assay, 1 × 10^4 cells per well were seeded in StemPro®-34 SFM in 96-well plates for 30 min before any treatments. For agonist studies, the cells were treated with compounds prepared in media for 30 min. For antagonist studies, the cells were pre-treated with compounds prepared in SFM for 30 min before addition of C3aR agonists for another 30 min. Cells were centrifuged (500 g, 5 min, 4 °C) and cell-free supernatants were collected for measuring histamine. Histamine content was measured using the histamine EIA kit according to the manufacturer’s instructions (Abnova, Taiwan). The readings were recorded on a FLUOstar Optima (BMG LabTechnologies, Offenburg, Germany).

C3aR [3] = target: T1, C3aR; experiment: Intracellular Ca2+ release in human monocyte-derived macrophages (agonist mode); type: cell-based; set-up: Concentration-dependent Ca^2+ release in human monocyte-derived macrophages (HMDMs); endogenous in cells; host or cells: primary human monocyte-derived macrophages (HMDMs); conditions: HMDMs, n ≥ 3, ± SEM
Description: as §1, §2

Cc1nc(C(c2ccccc2)c2ccccc2)sc1C(=O)NC(CCCNC(=N)N)C(=O)O (stereo not drawn) [Compound 5]
IC50 (C3aR [1]): 2000 ± 1100 nM

Ac-cyclo-(2,6)-Phe-[Orn-Pro-dCha-Trp-Arg] [Compound 3D53, reference compound]
C5aR binding by competition with [125I]-hC5a (C5aR): C5aR-binding

N=C(N)NCCCC(NC(=O)c1cnc(C(c2ccccc2)c2ccccc2)s1)C(=O)O (stereo not drawn) [Compound 4]
IC50 (C3aR [1]): 600 ± 200 nM

O=C(O)c1cc(=O)c2c(OCC(O)COc3cccc4oc(C(=O)O)cc(=O)c34)cccc2o1 [cromolyn]
Effect on BR103-induced histamine expression in paw (mast cells): reduced histamine expression
Effect on BR103-induced infiltration of ED1+ macrophages (mast cells): reduced infiltration of inflammatory ED1^+ macrophages
Effect on BR103-induced inflammatory gene expression (Il1β, Il6, Tnf, Ccl3, Mcp1) (mast cells): reduced expression of early response inflammatory genes
Effect on BR103-induced mast cell activation and degranulation (mast cells): attenuated BR103-induced increased activation
Effect on BR103-induced paw swelling (mast cells; BR103 350 µg/paw i.pl.): significant reduction in BR103-induced paw swelling at 0.5 h, almost back to baseline levels

Cc1sc(C(c2ccccc2)c2ccccc2)nc1C(=O)N[C@@H](CCCNC(=N)N)C(=O)O [Compound 2]
Type of agonist response, histamine release (C3aR [2]): full agonist response
EC50 (C3aR [2]): 300 ± 100 nM
EC50 (C3aR [3]): 140 ± 60 nM

N=C(N)NCCC[C@H](NC(=O)c1csc(C(c2ccccc2)c2ccccc2)n1)C(=O)O [Compound 1]
Type of agonist response, histamine release (C3aR [2]): partial agonist
EC50 (C3aR [2]): 110 ± 40 nM
EC50 (C3aR [3]): 50 ± 20 nM

B1: hC5a: human complement protein C5a, ligand of C5aR (protein, UniProt P01031 678-751, looked up)
C5a anaphylatoxin: TLQKKIEEIAAKYKHSVVKKCCYDGACVNNDETCEQRAARISLGPRCIKAFTECCVVASQLRANISHKDMQLGR
modifications: C5a anaphylatoxin
notes: human complement protein C5a, ligand of C5aR
C5aR binding by competition with [125I]-hC5a (C5aR): C5aR-binding
